From patent US20230227466A1, “SUBSTITUTED THIENOPYRIMIDINES THAT INTERACT WITH THE RAS SUPERFAMILY FOR THE TREATMENT OF CANCERS, INFLAMMATORY DISEASES, RASOPATHIES, AND FIBROTIC DISEASE” (SHY Therapeutics, LLC, priority 2020, published 2023)
Like-named read-outs stand apart in the source and are kept apart here.

Assays:
KRas wild type = KRas wild type (Homo sapiens, UniProt P01116); assay: Ras GTP binding domain inhibition assay (labeled-GTP competition, cell-free); design: made in house
Description: (§1) This is a competitive binding assay. It involves the immobilization of a protein on solid phase, interaction with a small molecule drug candidate, and then competitive binding with a labeled native GTP or GDP ligand.
(§2) In theory, the assay is suitable for use with any GTP or GDP binding protein.
(§3) The following method was developed as specific assay for the following proteins: KRas wild type, KRas Q61H mutant, KRas G12C mutant, KRas G12D mutant, Rac-1, and Rho-A.
(§4) The small GTPases proteins: KRas wild type. KRas Q61H mutant, KRas G12C mutant, KRas G12D mutants, Rac-1, and Rho-A were expressed as His-tagged proteins. In addition, the Guanosine nucleotide Exchange Factor (GEF) Sos protein (residues 556-1049) was expressed as a His-tagged protein. In cells, the guanine nucleotide exchange factor Sos protein promotes activation of Ras proteins by stimulating an exchange of GDP for GTP. The inclusion of Sos to the Ras GTP binding domain inhibition assay may be considered as an alternative representation of physiological cellular conditions for evaluating the inhibitory activity of some of the tested small molecules.
(§5) For the assay, all purified small GTPases proteins were diluted in Buffer-I or Buffer-II to a final concentration of 10-30 μg/mL. 200 μL of each diluted protein was added to a nickel-coated 96-well plate and incubated overnight at 4° C. Then the protein solution was discarded and 200 μL of Buffer-I or Buffer-II was added to each well in the presence of 1% DMSO. Compounds to be tested were added to the protein-coated wells at final concentration of 20 μM, and incubated for 3 hours at room temperature with and without 10-30 μg/mL of Sos added to the final hour of the incubation. When performing IC50 measurements a serial dilution of all tested concentrations was added. Then Cy3-GTP or Cy5-GTP was added to each well to a final concentration of 100 nM. The labeled GTP was incubated for 45 minutes at room temperature. Following GTP incubation, wells were washed 3× in Buffer-I or Buffer-II and 200 μL of Buffer-I or Buffer-II was added to each well. Following washes, the amount of bound labeled-GTP was measured using a SpectraMax M3 (Molecular Devices).

Rac-1 = Rac-1 (Homo sapiens, UniProt P63000); assay: as above; design: made in house
Description: as §1, §2, §3, §4, §5

Rho-A = Rho-A (Homo sapiens, UniProt P61586); assay: as above; design: made in house
Description: as §1, §2, §3, §4, §5

[1] = test system: ERK1/2 phosphorylation in Panc-1 cells; assay: Western ERK1/2 cell-based phosphorylation assay; design: species or system human; details: at 10 μM, values in brackets < > are activation %, not inhibition
Experimental: Cell lines: Human tumor-derived pancreatic cancer cell line Panc-1 was purchased from American Type Culture Collection and grown in complete DMEM-High Glucose, supplemented with penicillin (100 U/mL), streptomycin (100 μg/mL), and 10% heat-inactivated FBS at 37° C. in a humidified incubator with 5% CO2.
Method: Cells were plated at 350000 cells/well density in a 12-well plate, allowed 3 hours to adhere to the plate, then starved in the appropriate medium in the presence of 0.5% FBS overnight. The small molecules to be tested were added to the cells in the final concentration of 10 μM in the presence of 0.3% DMSO for 6 hours incubation at 37° C. For IC50 value determination, serial dilutions of compounds were added to cells under the same conditions. Next, cells were stimulated with 1.5 ng/ml EGF for 15 minutes then cells were lysed with lysis buffer containing 1% Triton X-100, EDTA, and Halt™ Protease & Phosphatase Inhibitor Cocktail (Thermo Scientific). Protein concentration was assessed by BCA protein assay (Thermo Scientific). Phosphorylation level of ERK1/2 was determined by western blot.
Western blot protocol: Equal amounts of protein (15-50 μg) were separated by SDS-PAGE and transferred to nitrocellulose membranes (Invitrogen by Thermo Fisher Scientific). The membrane was stained with Ponceau S Stain (Boston BioProducts) to verify uniform protein loading. Membranes were blocked with 10% milk and phosphorylation levels of ERK1/2 were assessed by incubating overnight at 4° C. with anti-phospho-p44/42 (Thr202/Tyr204) antibody (Cell Signaling) followed by HRP-conjugated secondary antibody (Jackson Immunoresearch, West Grove, Pa.). Bands were incubated in Amersham ECL Prime Western Blotting Detection Reagent (GE Healthcare) and visualized using the ChemiDoc MP imaging system (Bio-Rad). Protocol for Western AKT cell-based phosphorylation assay

[2] = test system: MIA-PaCa-2 pancreatic cancer cell line (KRAS G12C); assay: Cell proliferation assay (CellTiter 96 Aqueous One); assay type: cell-based; details: Homo sapiens; for inhibition at 10 µM: MIA PaCa-2, read-out: % inh cell proliferation (10 μM) in MIA PaCa-2
Experimental: Cell lines: Human tumor-derived cell lines were purchased from American Type Culture Collection. Human tumor-derived pancreatic cancer cell line MIA-PACA2 (having a KRAS G12C mutation) and Panc-1 (having a KRAS G12D mutation), and Human non-small cell lung cancer (NSCLC) cell line A549 (having a KRAS G12S mutation) were grown in complete DMEM-High Glucose. Human colon cancer cell line SW-620 (having a KRAS G12V mutation) was grown in RPMI. All cell lines were supplemented with penicillin (100 U/mL), streptomycin (100 μg/mL), and 10% heat-inactivated FBS at 37° C. in a humidified incubator with 5% CO2.
Method: Cells were plated at 2000 to 5000 cells/well density in 96-wells plate and cultured overnight. Small molecules to be tested were added to the cells in the final concentration of 10 μM in the presence of 0.3% DMSO and 10% FBS, and incubated for 2-4 days at 37° C. in a humidified incubator with 5% CO2. For IC50 value determination, serial dilutions of compounds were added to cells under the same conditions.
Assay: At the end of the incubation period, cell viability was measured using the CellTiter 96® Aqueous One Solution Cell Proliferation Assay according to manufacturer specifications (Promega, Madison, Wis.). The percentage of small molecules inhibition of cellular proliferation was calculated from raw data.

[3] = with SOS, read-out: KRas wild type + SOS: % inh.
[4] = without SOS, read-out: KRas wild type: % inh.
[5] = with SOS, read-out: Rac-1 + SOS: % inh.
[6] = without SOS, read-out: Rac-1: % inh.
[7] = with SOS, read-out: Rho-A + SOS: % inh.
[8] = without SOS, read-out: Rho-A: % inh.

| Compound | inhibition at 20 µM (KRas wild type; [3]) [%] | inhibition at 20 µM (KRas wild type; [4]) [%] | inhibition at 20 µM (Rac-1; [5]) [%] | inhibition at 20 µM (Rac-1; [6]) [%] | inhibition at 20 µM (Rho-A; [7]) [%] | inhibition at 20 µM (Rho-A; [8]) [%] | IC50 ([2]; MIA PaCa-2, MIA PaCa-2) [µM] | IC50 ([2]; MIA PaCa-2, MIA-PaCa-2, 2-4 days, 10% FBS) [µM] | % inh of ERK1/2 phosphorylation in PANC-1 [1] | inhibition at 10 µM [2] [%] |
| --- | --- | --- | --- | --- | --- | --- | --- | --- | --- | --- |
| CO[C@H]1CC[C@@H](Nc2nc(C(=O)Nc3ccccn3)nc3sccc23)C1 (racemic) [Compound 16, rac-4-(((1R,3S)-3-Methoxycyclopentyl)amino)-N-(pyridin-2-yl)thieno[2,3-d]pyrimidine-2-carboxamide] | 0 | 1 to 25 | 0 | 1 to 25 | 1 to 25 | 0 | > 10 |  | 0 (0% inhibition) | 1 to 25 |
| CO[C@H]1CC[C@@H](Nc2nc(C(=O)Nc3ccccc3)nc3sccc23)C1 (racemic) [Compound 15, rac-4-(((1R,3S)-3-Methoxycyclopentyl)amino)-N-phenylthieno[2,3-d]pyrimidine-2-carboxamide] | 0 | 1 to 25 | 0 | 0 | 0 | 0 | > 10 |  | 0 (0% inhibition) | 1 to 25 |
| COCCNC(=O)c1nc(N[C@@H]2CC[C@H](OC)C2)c2ccsc2n1 (racemic) [Compound 14, rac-4-(((1R,3S)-3-Methoxycyclopentyl)amino)-N-(2-methoxyethyl)thieno[2,3-d]pyrimidine-2-carboxamide] | 0 | 0 | 0 | 0 | 1 to 25 | 1 to 25 | > 10 |  | 0 (0% inhibition) | 0 |
| COC[C@@H]1CC[C@@H]1CNc1nc(-c2nccn2C)nc2sc(-c3ccn(C(C)C)n3)c(C)c12 (racemic) [Compound 63, rac-6-(1-Isopropyl-1H-pyrazol-3-y)-N-(((1S,2R)-2-(methoxymethyl)cyclobutyl)methyl)-5-methyl-2-(1-methyl-1H-imidazol-2-yl)thieno[2,3-d]pyrimidin-4-amine] | 26 to 50 | 51 to 75 |  | 26 to 50 |  | 51 to 75 | < 1 | < 0.4 | D (76-100% inhibition) | 76 to 100 |
| COCCNc1nc(-c2nccn2C)nc2sc(-c3ccn(C(C)C)n3)c(C)c12 [Compound 35, 6-(1-Isopropyl-1H-pyrazol-3-yl)-N-(2-methoxyethyl)-5-methyl-2-(1-methyl-1H-imidazol-2-yl)thieno[2,3-d]pyrimidin-4-amine] | 76 to 100 | 76 to 100 | 76 to 100 | 76 to 100 | 76 to 100 | 76 to 100 | 5 to 10 |  | 0 (0% inhibition) | 76 to 100 |
| CO[C@H]1C[C@H](Nc2nc(-c3nccn3C)nc3sc(-c4ccn(C(C)C)n4)c(C)c23)C[C@H]1OC [Compound 43, N-((1s,3R,4S)-3,4-Dimethoxycyclopentyl)-6-(1-isopropyl-1H-pyrazol-3-yl)-5-methyl-2-(1-methyl-1H-imidazol-2-yl)thieno[2,3-d]pyrimidin-4-amine] | 76 to 100 | 26 to 50 | 51 to 75 | 26 to 50 | 76 to 100 | 76 to 100 | 5 to 10 |  | B (26-50% inhibition) | 51 to 75 |

Now from value to molecule, other results behind:

| inhibition at 20 µM (KRas wild type; [3]) [%] | inhibition at 20 µM (KRas wild type; [4]) [%] | inhibition at 20 µM (Rac-1; [5]) [%] | inhibition at 20 µM (Rac-1; [6]) [%] | inhibition at 20 µM (Rho-A; [7]) [%] | inhibition at 20 µM (Rho-A; [8]) [%] | IC50 ([2]; MIA PaCa-2, MIA PaCa-2) [µM] | IC50 ([2]; MIA PaCa-2, MIA-PaCa-2, 2-4 days, 10% FBS) [µM] | Compound | % inh of ERK1/2 phosphorylation in PANC-1 [1] | inhibition at 10 µM [2] [%] |
| --- | --- | --- | --- | --- | --- | --- | --- | --- | --- | --- |
| 76 to 100 | 76 to 100 | 51 to 75 | 51 to 75 | 76 to 100 | 76 to 100 | > 10 |  | Cn1ccnc1-c1nc(O)c2scc(-c3ncccc3F)c2n1 [Compound 30, 7-(3-Fluoropyridin-2-yl)-2-(1-methyl-1H-imidazol-2-yl)thieno[3,2-d]pyrimidin-4-ol] | 0 (0% inhibition) | 26 to 50 |
| 0 | 1 to 25 |  | 0 |  | 1 to 25 | 5 to 10 |  | Cc1c(-c2ccn(C(C)C)n2)sc2nc(-c3ccccn3)nc(N3CCC(COC(C)C)C3)c12 (centres unmarked) [Compound 72, 4-(3-(Isopropoxymethyl)pyrrolidin-1-yl)-6-(1-isopropyl-1H-pyrazol-3-yl)-5-methyl-2-(pyridin-2-yl)thieno[2,3-d]pyrimidine] | D (76-100% inhibition) | 51 to 75 |
| 1 to 25 | 26 to 50 |  | 26 to 50 |  | 51 to 75 | 5 to 10 |  | COc1cccn2c(-c3nc(O)c4scc(-c5ccccn5)c4n3)ncc12 [Compound 84, 2-(8-Methoxyimidazo[1,5-a]pyridin-3-yl)-7-(pyridin-2-yl)thieno[3,2-d]pyrimidin-4-ol] | 0 (0% inhibition) | 51 to 75 |
| 51 to 75 | 76 to 100 |  | 51 to 75 |  | 76 to 100 | 1 to 4.99 |  | COCCCn1ccnc1-c1nc(O)c2scc(-c3ccccn3)c2n1 [Compound 79, 2-(1-(3-Methoxypropyl)-1H-imidazol-2-yl)-7-(pyridin-2-yl)thieno[3,2-d]pyrimidin-4-ol] | 0 (0% inhibition) | 76 to 100 |
